Assay in all cases: NCI tumour cell line growth inhibition, 48 h
Experiment [1] relates to OVCAR-3 ovarian.
The subject of experiment [2] is CCRF-CEM leukemia.
Experiment [3] concerns UO-31 renal.
For experiment [4], the system named is EKVX NSCLC.
Experiment [5] has as its system SW-620 colon.
Experiment [6] deals with M14 melanoma.
In experiment [7] the test system is OVCAR-8 ovarian.
Experiment [8] concerns HT29 colon.
For experiment [9], the system named is HCT-116 colon.
Experiment [10] deals with SK-MEL-28 melanoma.

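Values below derive from 48-hour exposures of cells grown in 96-well plates, with endpoints linearly interpolated between the two concentrations bracketing the appropriate inhibition level. GI50 = concentration required for 50% inhibition of growth. At the TGI there is no net growth.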

Regarding `O=C1CCC(c2ccccc2)=NN1c1nsc2ccccc12`, the TGI in [1], in experiment [2], in experiment [3], in experiment [4], in [5] and in experiment [6] was greater than 100 µM in each case. In addition, the TGI in [7], in experiment [8], in experiment [9] and in experiment [10] was greater than 100 µM in each case.
Regarding `O=C1CC2(CCC(O)(c3ccc4ccccc4c3)C(C(=O)c3ccc4ccccc4c3)C2)C(=O)c2ccccc2N1` (stereo not given), the TGI in experiment [1], in experiment [2], in experiment [3], in [4], in experiment [5] and in experiment [6] was greater than 100 µM in each case. The TGI in [7], in [8], in experiment [9] and in [10] was greater than 100 µM in each case.
Regarding `COc1cnc2c(c1)C(=O)c1c-2n(CCCN2CCOCC2)c(=O)c2cc(Cl)ccc12`, the GI50 in [1] was 0.783 µM; in [2] it was 0.12 µM; in experiment [3] it was 0.349 µM; in experiment [4], greater than 100 µM; in experiment [5] it was 0.232 µM; in [6], 0.323 µM. Further, the GI50 in [7] is 0.578 µM; in experiment [8] it was 0.233 µM; in experiment [9] it was 0.167 µM; in experiment [10], greater than 100 µM. Moreover, the TGI in experiment [1], in experiment [2], in experiment [3], in experiment [4], in experiment [5] and in experiment [6] was greater than 100 µM throughout. Also, the TGI in experiment [7], in [8], in experiment [9] and in experiment [10] was greater than 100 µM in each case.
`COc1cccc(N2C(Cl)C(=O)C2c2c[nH]c3ccccc23)c1` (stereo not given): the TGI in experiment [1], in [2], in experiment [3], in [4], in [5] and in experiment [6] was greater than 100 µM each time. The TGI in experiment [7], in [8], in experiment [9] and in [10] was greater than 100 µM in each case.
Turning to `Nc1ncc(-c2ccc3ncnc(Nc4ccc(F)c(Cl)c4)c3c2)cn1`, the GI50 in experiment [1] is 1.2 µM; in experiment [2], 2.86 µM; in experiment [3], 0.5 µM; in [4], 0.252 µM; in [5] it was 3.02 µM; in [6], 3.74 µM. Moreover, the GI50 in [7] was 2.96 µM; in experiment [8], 2.31 µM; in experiment [9], 1.89 µM; in experiment [10], 3.08 µM. In addition, the TGI in experiment [1] was 2.57 µM; in [2], greater than 100 µM; in experiment [3] it was 3.02 µM; in experiment [4], 38 µM; in experiment [5], 11.7 µM; in experiment [6], 17.1 µM. In addition, the TGI in experiment [7] was 17.5 µM; in experiment [8], 19.3 µM; in experiment [9] it was 3.73 µM; in [10] it was 17.6 µM.
`O=c1oc2cc(O)ccc2c(O)c1C(c1ccccc1)c1c(O)c2ccc(O)cc2oc1=O`: the TGI in experiment [1], in [2], in experiment [3], in experiment [4], in [5] and in experiment [6] was greater than 100 µM in each case. In addition, the TGI in [7], in [8], in [9] and in [10] was greater than 100 µM in each case.

Values taken from PubChem BioAssay (NCI).
